PubChem BioAssay (NCI)
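Growth conditions: 96-well plates. Treatment: test compound, 48 hours, 5 concentrations. Analysis: linear interpolation between bracketing concentrations; unreached endpoints set to highest concentration. TGI: total growth inhibition.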

Assays:
Assay in all cases: inhibition of tumour cell growth, NCI panel, 48 h
[1] = system: PC-3 prostate
[2] = system: SK-OV-3 ovarian
[3] = system: HOP-62 NSCLC
[4] = system: KM12 colon
[5] = system: SNB-19 CNS
[6] = system: COLO 205 colon
[7] = system: SF-295 CNS
[8] = system: LOX IMVI melanoma
[9] = system: SR leukemia
[10] = system: SK-MEL-28 melanoma
[11] = system: MCF7 breast
[12] = system: A549 NSCLC
[13] = system: MDA-MB-435
[14] = system: T-47D breast
[15] = system: 786-0 renal
[16] = system: CAKI-1 renal
[17] = system: UACC-62 melanoma
[18] = system: HS 578T breast
[19] = system: OVCAR-3 ovarian
[20] = system: NCI-H23 lung
[21] = system: TK-10 renal
[22] = system: MDA-MB-231 breast
[23] = system: DU-145 prostate
[24] = system: A498 renal
[25] = system: SN12C renal
[26] = system: NCI/ADR-RES ovarian
[27] = system: SK-MEL-5 melanoma
[28] = system: MDA-N
[29] = system: HCC-2998 colon
[30] = system: M14 melanoma
[31] = system: EKVX NSCLC
[32] = system: SK-MEL-2 melanoma
[33] = system: RXF 393 renal
[34] = system: SF-268 CNS
[35] = system: IGROV1 ovarian
[36] = system: NCI-H522 lung
[37] = system: OVCAR-8 ovarian
[38] = system: OVCAR-5 ovarian
[39] = system: U251 CNS
[40] = system: UACC-257 melanoma
[41] = system: SF-539 CNS
[42] = system: MALME-3M melanoma
[43] = system: OVCAR-4 ovarian
[44] = system: SW-620 colon
[45] = system: HCT-116 colon
[46] = system: RPMI-8226 leukemia
[47] = system: CCRF-CEM leukemia
[48] = system: HT29 colon
[49] = system: UO-31 renal
[50] = system: K-562 leukemia
[51] = system: HCT-15 colon
[52] = system: NCI-H460 lung
[53] = system: NCI-H226 lung
[54] = system: ACHN renal
[55] = system: MOLT-4 leukemia
[56] = system: HL-60(TB) leukemia
[57] = system: HOP-92 NSCLC
[58] = system: SNB-75 CNS
[59] = system: BT-549 breast

For c1ccc(C2=NCCc3cc4c(cc32)OCO4)cc1, the TGI [1] was > 100 µM, the TGI [2] was > 100 µM and the TGI [3] was > 100 µM. For the same compound, the TGI [4] was > 100 µM, the TGI [5] was > 100 µM and the TGI [6] was > 100 µM. For the same compound, the TGI [7] was > 100 µM, the TGI [8] was > 100 µM and the TGI [9] was > 100 µM. For the same compound, the TGI [10] was > 100 µM, the TGI [11] was > 100 µM and the TGI [12] was > 100 µM. The TGI [13] was > 100 µM, the TGI [14] was > 100 µM and the TGI [15] was > 100 µM. The TGI [16] was > 100 µM, the TGI [17] was > 100 µM and the TGI [18] was > 100 µM. The TGI [19] was > 100 µM, the TGI [20] was > 100 µM and the TGI [21] was > 100 µM. The TGI [22] was > 100 µM, the TGI [23] was > 100 µM and the TGI [24] was > 100 µM. The TGI [25] was > 100 µM, the TGI [26] was > 100 µM and the TGI [27] was > 100 µM. The TGI [28] was > 100 µM, the TGI [29] was > 100 µM and the TGI [30] was > 100 µM. For the same compound, the TGI [31] was > 100 µM, the TGI [32] was > 100 µM and the TGI [33] was > 100 µM. For the same compound, the TGI [34] was > 100 µM, the TGI [35] was > 100 µM and the TGI [36] was > 100 µM. The TGI [37] was > 100 µM, the TGI [38] was > 100 µM and the TGI [39] was > 100 µM. For the same compound, the TGI [40] was > 100 µM, the TGI [41] was > 100 µM and the TGI [42] was > 100 µM. For the same compound, the TGI [43] was > 100 µM and the TGI [44] was > 100 µM.

With CCc1nc2ccc(C(F)(F)F)cc2[nH]c1=O the TGI [1] was > 100 µM, the TGI [2] was > 100 µM and the TGI [45] was > 100 µM. The TGI [3] was > 100 µM, the TGI [46] was > 100 µM and the TGI [4] was > 100 µM. For the same compound, the TGI [5] was > 100 µM, the TGI [47] was > 100 µM and the TGI [6] was > 100 µM. The TGI [7] was > 100 µM, the TGI [8] was > 100 µM and the TGI [48] was > 100 µM. The TGI [10] was > 100 µM, the TGI [49] was > 100 µM and the TGI [50] was > 100 µM. For the same compound, the TGI [11] was > 100 µM, the TGI [51] was > 100 µM and the TGI [12] was > 100 µM. For the same compound, the TGI [13] was > 100 µM, the TGI [15] was > 100 µM and the TGI [16] was > 100 µM. The TGI [17] was > 100 µM, the TGI [52] was > 100 µM and the TGI [18] was > 100 µM. For the same compound, the TGI [19] was > 100 µM, the TGI [20] was > 100 µM and the TGI [21] was > 100 µM. The TGI [22] was > 100 µM, the TGI [23] was > 100 µM and the TGI [24] was > 100 µM. For the same compound, the TGI [25] was > 100 µM, the TGI [26] was > 100 µM and the TGI [27] was > 100 µM. For the same compound, the TGI [28] was > 100 µM, the TGI [29] was > 100 µM and the TGI [30] was > 100 µM. The TGI [31] was > 100 µM, the TGI [53] was > 100 µM and the TGI [32] was > 100 µM. For the same compound, the TGI [54] was > 100 µM, the TGI [33] was > 100 µM and the TGI [34] was > 100 µM. The TGI [55] was > 100 µM, the TGI [37] was > 100 µM and the TGI [38] was > 100 µM. For the same compound, the TGI [39] was > 100 µM, the TGI [40] was > 100 µM and the TGI [41] was > 100 µM. For the same compound, the TGI [42] was > 100 µM, the TGI [43] was > 100 µM and the TGI [56] was > 100 µM. For the same compound, the TGI [57] was > 100 µM, the TGI [58] was > 100 µM and the TGI [44] was > 100 µM. For the same compound, the TGI [59] was > 100 µM.

Work on Clc1ncc(Cl)c(Cl)n1 yielded a TGI [1] of 5.64 µM, a TGI [2] of 14.3 µM and a TGI [45] of 8.01 µM. It also gave a TGI [3] of 39.4 µM, a TGI [46] of 6.47 µM and a TGI [4] of 22.9 µM. The TGI [5] was 10.3 µM, the TGI [47] was > 100 µM and the TGI [6] was 3.3 µM. The TGI [7] was 26.6 µM, the TGI [8] was 3.22 µM and the TGI [9] was 5.62 µM. It also gave a TGI [48] of 3.02 µM, a TGI [10] of 10.9 µM and a TGI [49] of 7.17 µM. It also gave a TGI [50] of 4.08 µM, a TGI [11] of 4.8 µM and a TGI [51] of 5.99 µM. The TGI [12] was 28.8 µM, the TGI [13] was 7.52 µM and the TGI [14] was 10 µM. The TGI [15] was 7.49 µM, the TGI [16] was 3.25 µM and the TGI [17] was 4.42 µM. The TGI [52] was > 100 µM, the TGI [18] was 14.9 µM and the TGI [19] was 14.3 µM. For the same compound, the TGI [20] was 42.3 µM, the TGI [21] was 23.1 µM and the TGI [22] was 7.82 µM. The TGI [23] was 24.1 µM, the TGI [24] was 40.2 µM and the TGI [25] was 5.91 µM. The TGI [26] was 20.5 µM, the TGI [27] was 12.7 µM and the TGI [28] was 11 µM. It also gave a TGI [29] of 15.1 µM, a TGI [30] of 10.6 µM and a TGI [31] of 30.3 µM. It also gave a TGI [53] of 19 µM, a TGI [32] of 6.08 µM and a TGI [54] of 3.63 µM. The TGI [33] was 5.46 µM, the TGI [34] was 20.5 µM and the TGI [55] was 4.31 µM. It also gave a TGI [35] of 23.3 µM, a TGI [36] of 5.69 µM and a TGI [37] of 19.3 µM. It also gave a TGI [38] of 34.2 µM, a TGI [39] of 11.2 µM and a TGI [40] of 14.3 µM. For the same compound, the TGI [41] was 24.6 µM, the TGI [42] was 3.75 µM and the TGI [43] was 3.53 µM. The TGI [56] was 2.36 µM, the TGI [57] was 3.43 µM and the TGI [58] was 9.98 µM. The TGI [44] was 2.94 µM.

Work on CC(=O)NC(Cc1ccc(OP(=O)(OCc2ccc([N+](=O)[O-])o2)N(C)CCCCCl)cc1)C(=O)NC(C)c1ccc(OCC2CCCCC2)c(C(N)=O)c1 (configuration not stated) yielded a TGI [1] of 10.5 µM, a TGI [2] of 37.3 µM and a TGI [45] of 5.3 µM. The TGI [3] was 23.7 µM, the TGI [46] was 3.96 µM and the TGI [4] was 8.71 µM. The TGI [5] was 14.9 µM, the TGI [47] was 10.1 µM and the TGI [6] was 3.68 µM. The TGI [7] was 16.9 µM, the TGI [8] was 3.77 µM and the TGI [9] was 6.42 µM. For the same compound, the TGI [48] was 4.83 µM, the TGI [10] was 4.08 µM and the TGI [49] was 45.2 µM. The TGI [50] was > 100 µM, the TGI [11] was 5.23 µM and the TGI [51] was > 100 µM. The TGI [12] was 18.2 µM, the TGI [13] was 4.81 µM and the TGI [14] was 6.31 µM. For the same compound, the TGI [15] was 12.4 µM, the TGI [16] was > 100 µM and the TGI [17] was 5.34 µM. The TGI [52] was 15.2 µM, the TGI [18] was 4.65 µM and the TGI [19] was 5.04 µM. For the same compound, the TGI [20] was 6.3 µM, the TGI [21] was 32 µM and the TGI [22] was 4.79 µM. It also gave a TGI [23] of 15.2 µM, a TGI [24] of 35.4 µM and a TGI [25] of 6.53 µM. For the same compound, the TGI [26] was > 100 µM, the TGI [27] was 3.08 µM and the TGI [28] was 5.22 µM. It also gave a TGI [29] of 3.42 µM, a TGI [30] of 5.49 µM and a TGI [53] of 21.2 µM. It also gave a TGI [32] of 9.2 µM, a TGI [54] of 33.4 µM and a TGI [33] of 5.68 µM. For the same compound, the TGI [34] was 6.48 µM, the TGI [55] was 26.3 µM and the TGI [35] was 7.01 µM. The TGI [36] was 12 µM, the TGI [37] was 21.8 µM and the TGI [38] was 21.2 µM. It also gave a TGI [39] of 6.49 µM, a TGI [40] of 3.78 µM and a TGI [41] of 4.35 µM. For the same compound, the TGI [42] was 5.65 µM, the TGI [43] was 11.9 µM and the TGI [56] was 6.83 µM. The TGI [44] was 14.2 µM.
